PMC10945555, “Improving Activity of New Arylurea Agents against Multidrug-Resistant and Biofilm-Producing Staphylococcus epidermidis” (ACS Medicinal Chemistry Letters, 2024)
≈ marks a conversion by molar mass, not a printed value.

Assays:
H9c2 cells = experiment: Cytotoxicity, MTT assay, cardiomyocytes; format: cell-based; settings: Rattus norvegicus, 24 h, n = 3
Procedure: (§1) The following cell models were used in the research: rat cardiomyocytes (H9c2 line) and human skin fibroblasts (BJ line). All cell lines used in the work are commercially available and were purchased from ATCC banks (the American Type Culture Collection, Manassas, VI, USA). Cell cultures were carried out in an incubator under standard conditions (37°C, 5% CO 2).
(§2) Culture media (Dulbecco's Modified Eagle's Medium -DMEM (H9c2) and Eagle's Minimum Essential Medium-EMEM (BJ) were supplemented with 10% bovine serum and a 1% mixture of penicillin and streptomycin antibiotics. […]
(§3) doxorubicin (a cytotoxic drug) were used as reference and positive control, respectively. […]
(§4) incubated with studied compound in appropriate concentration for next 24 h. Then MTT solution (5 mg/mL) was transferred into culture medium of incubated cells. After 3 h, once dark crystals of formazan were produced in cells, medium was aspirated and 100 μ L of DMSO was added to dissolve formazan. Absorbance of DMSO solution was read on a multiwell plate reader (Spectra Max iD3, Molecular Devices) at 570 nm. In order to determine viability, absorbance of experimental wells was divided by absorbance of contro l well (not treated) and multiplied by 100 (%). Three separate experiments were performed. IC 50 was calculated using non-linear regression method in OriginPro software. […]

BJ cells = experiment: Cytotoxicity, MTT assay, skin fibroblasts; format: cell-based, human
Procedure: as §1, §2, §3
as §4, with “solution” for “incubated with studied compound in appropriate concentration for next 24 h. Then MTT solution”

[1] = test system: biofilm-producing Staphylococcus epidermidis strains; experiment: Inhibition of biofilm formation (MBIC, resazurin); format: cell-based; settings: for MBIC50 / MBIC90: Table S4 strains
Procedure: After 24 hours incubation each well of
concentration of 4 mg/mL was added. […]

[2] = test system: Staphylococcus epidermidis ATCC 12228; experiment: MIC, broth microdilution, MSSE reference strain; format: cell-based; settings: ATCC12228, Staphylococcus epidermidis ATCC 12228, read-out: MIC MSSE
Text: These strains included susceptible, multidrug-resistant, and biofilm-producing strains of S. epidermidis and S. aureus (MSSE, MDR/BPSE, and MDR/BPSA, respectively). The cornerstone antibiotic linezolid served as a positive control (Table 1). The impact of structural modifications at the aryloxy fragment and the aromatic moiety bound to the propyl linker on the inhibitory activity was initially investigated. […] Further optimization focused on evaluating the impact of the type of substituent and its position on the arylsulfonamide fragment’s activity.
2 Biological assay protocols
Microbiological tests were carried out under aseptic conditions in a laminar chamber of the 2nd […]
(BioTectum 1.2, Alchem Poland). The assessment of antimicrobial activity was carried out for final compounds in the form of free bases, soluble in DMSO (Merck, Germany), at the initial […]
concentration of 1 mg/mL. […]
were provided by Cayman Chemical, USA.
The activity of all newly synthesized compounds was tested in vitro on a panel of selected reference strains from the American Type Culture Collection (ATCC) of Gram-positive […]
2.2 Effect of evaluated compounds on planktonic cells
The susceptibility of three reference bacterial strains (Staphylococcus epidermidis ATCC […]
Table S1) and 81 clinical MDR S. epidermidis (Table S2) to the tested compounds was assessed by determining the MIC value (Minimal Inhibitory Concentration) by microdilution in a liquid medium in 96-well flat-bottom cell culture plates (Nest Biotechnology Scientific, USA). The antibacterial properties of the compo unds were tested in the concentration range from 50 µg/mL to 0.1 µg/mL by making a series of double dilutions of the compound in liquid Mueller -Hinton II Broth Cation Adjusted (MHB II, BBL TM, USA) according to the European Committee on […]
Antimicrobial Susceptibility Testing guidelines (EUCAST).2,3 The determinations were performed twice. The MIC50 and MIC90 values were determined for each of the tested

[3] = S. epidermidis ATCC 35984 (Table S4)
[4] = clinical strain 25 (Table S4, Figure 2)

For O=C(Nc1cccc(Cl)c1)NC1CCN(CCC(Oc2ccc(C(F)(F)F)cc2)c2cccs2)CC1 (stereo not drawn) [Compound 25], the IC50 (H9c2 cells) was 26.9 µg/mL (≈ 50 µM), the “visible change in the appearance of the cells” value (BJ cells; 18 hours, sector F 25 µM, G 50 µM, tested 2.5-50 µM) was “visible in sector F and G” and the IC50 (BJ cells; Homo sapiens, MTT, 24 h, n = 3) was 13.2 µg/mL (≈ 24.5 µM). For the same compound, the MBIC [1, 3] was 7.8 µg/mL, the MBIC50 [1] was 15.6 µg/mL and the MBIC90 [1] was 31.25 µg/mL. It also gave an MBIC ([1]; clinical strain 1 (Table S4)) of 15.6 µg/mL, an MBIC ([1]; clinical strain 2 (Table S4)) of 31.25 µg/mL and an MBIC ([1]; clinical strain 3 (Table S4)) of 31.25 µg/mL. It also gave an MBIC ([1]; clinical strain 4 (Table S4)) of 31.25 µg/mL, an MBIC ([1]; clinical strain 5 (Table S4)) of 15.6 µg/mL and an MBIC ([1]; clinical strain 6 (Table S4)) of 15.6 µg/mL. The MBIC ([1]; clinical strain 8 (Table S4)) was 3.9 µg/mL, the MBIC ([1]; clinical strain 9 (Table S4)) was 31.25 µg/mL and the MBIC ([1]; clinical strain 11 (Table S4)) was 31.25 µg/mL. It also gave an MBIC ([1]; clinical strain 12 (Table S4)) of 31.25 µg/mL, an MBIC ([1]; clinical strain 13 (Table S4)) of 1.6 µg/mL and an MBIC ([1]; clinical strain 15 (Table S4)) of 31.25 µg/mL. For the same compound, the MBIC ([1]; clinical strain 16 (Table S4)) was 15.6 µg/mL, the MBIC ([1]; clinical strain 17 (Table S4)) was 15.6 µg/mL and the MBIC ([1]; clinical strain 19 (Table S4)) was 15.6 µg/mL. The MBIC ([1]; clinical strain 21 (Table S4)) was 31.25 µg/mL, the MBIC ([1]; clinical strain 22 (Table S4)) was 31.25 µg/mL and the MBIC ([1]; clinical strain 23 (Table S4)) was 3.9 µg/mL. It also gave an MBIC [1, 4] of 7.8 µg/mL, an MBIC ([1]; clinical strain 26 (Table S4)) of 31.25 µg/mL and an MBIC ([1]; clinical strain 27 (Table S4)) of 31.25 µg/mL. The MBIC ([1]; clinical strain 28 (Table S4)) was 15.6 µg/mL, the MBIC ([1]; clinical strain 29 (Table S4)) was 15.6 µg/mL and the MBIC ([1]; clinical strain 30 (Table S4)) was 1.6 µg/mL. The MBIC ([1]; clinical strain 33 (Table S4)) was 31.25 µg/mL, the MBIC ([1]; clinical strain 35 (Table S4)) was 31.25 µg/mL and the MBIC ([1]; clinical strain 36 (Table S4)) was 15.6 µg/mL. The MBIC ([1]; clinical strain 37 (Table S4)) was 31.25 µg/mL, the MBIC ([1]; clinical strain 39 (Table S4)) was 1.6 µg/mL and the MBIC ([1]; clinical strain 40 (Table S4)) was 15.6 µg/mL. It also gave an MBIC ([1]; clinical strain 41 (Table S4)) of 31.25 µg/mL, an MBIC ([1]; clinical strain 42 (Table S4)) of 31.25 µg/mL and an MBIC ([1]; clinical strain 43 (Table S4)) of 15.6 µg/mL. The MBIC ([1]; clinical strain 44 (Table S4)) was 15.6 µg/mL, the MBIC ([1]; clinical strain 45 (Table S4)) was 31.25 µg/mL and the MBIC ([1]; clinical strain 46 (Table S4)) was 31.25 µg/mL. For the same compound, the MBIC ([1]; clinical strain 47 (Table S4)) was 15.6 µg/mL, the MBIC ([1]; clinical strain 49 (Table S4)) was 15.6 µg/mL and the MBIC ([1]; clinical strain 51 (Table S4)) was 31.25 µg/mL. It also gave an MBIC ([1]; clinical strain 55 (Table S4)) of 31.25 µg/mL, an MBIC ([1]; clinical strain 58 (Table S4)) of 31.25 µg/mL and an MBIC ([1]; clinical strain 59 (Table S4)) of 31.25 µg/mL. It also gave an MBIC ([1]; clinical strain 65 (Table S4)) of 31.25 µg/mL, an MBIC ([1]; clinical strain 66 (Table S4)) of 15.6 µg/mL and an MBIC ([1]; clinical strain 67 (Table S4)) of 31.25 µg/mL. For the same compound, the MBIC ([1]; clinical strain 70 (Table S4)) was 31.25 µg/mL, the MBIC ([1]; clinical strain 73 (Table S4)) was 7.8 µg/mL and the MBIC ([1]; clinical strain 74 (Table S4)) was 15.6 µg/mL. For the same compound, the MBIC ([1]; clinical strain 75 (Table S4)) was 15.6 µg/mL, the MBIC ([1]; clinical strain 78 (Table S4)) was 7.8 µg/mL and the MBIC ([1]; clinical strain 79 (Table S4)) was 7.8 µg/mL.
CC(=O)NC[C@H]1CN(c2ccc(N3CCOCC3)c(F)c2)C(=O)O1 [linezolid, reference compound] was tested, and the IC50 (H9c2 cells) was 16.9 µg/mL (≈ 50.1 µM), the MIC [2] was 0.8 µg/mL (≈ 2.37 µM) and the MBIC [1, 3] was 15.6 µg/mL. It also gave an MBIC50 [1] of 25 µg/mL, an MBIC90 [1] of 50 µg/mL and an MBIC ([1]; clinical strain 1 (Table S4)) of 15.6 µg/mL. It also gave an MBIC ([1]; clinical strain 2 (Table S4)) of 50 µg/mL, an MBIC ([1]; clinical strain 3 (Table S4)) of 50 µg/mL and an MBIC ([1]; clinical strain 4 (Table S4)) of 50 µg/mL. For the same compound, the MBIC ([1]; clinical strain 5 (Table S4)) was 15.6 µg/mL, the MBIC ([1]; clinical strain 6 (Table S4)) was 15.6 µg/mL and the MBIC ([1]; clinical strain 7 (Table S4)) was 50 µg/mL. The MBIC ([1]; clinical strain 8 (Table S4)) was 12.5 µg/mL, the MBIC ([1]; clinical strain 9 (Table S4)) was 50 µg/mL and the MBIC ([1]; clinical strain 11 (Table S4)) was 50 µg/mL. The MBIC ([1]; clinical strain 12 (Table S4)) was 50 µg/mL, the MBIC ([1]; clinical strain 13 (Table S4)) was 6.25 µg/mL and the MBIC ([1]; clinical strain 15 (Table S4)) was 50 µg/mL. The MBIC ([1]; clinical strain 16 (Table S4)) was 15.6 µg/mL, the MBIC ([1]; clinical strain 17 (Table S4)) was 25 µg/mL and the MBIC ([1]; clinical strain 19 (Table S4)) was 25 µg/mL. For the same compound, the MBIC ([1]; clinical strain 21 (Table S4)) was 50 µg/mL, the MBIC ([1]; clinical strain 22 (Table S4)) was 50 µg/mL and the MBIC ([1]; clinical strain 23 (Table S4)) was 12.5 µg/mL. For the same compound, the MBIC [1, 4] was 12.5 µg/mL, the MBIC ([1]; clinical strain 26 (Table S4)) was 50 µg/mL and the MBIC ([1]; clinical strain 27 (Table S4)) was 50 µg/mL. It also gave an MBIC ([1]; clinical strain 28 (Table S4)) of 25 µg/mL, an MBIC ([1]; clinical strain 29 (Table S4)) of 25 µg/mL and an MBIC ([1]; clinical strain 30 (Table S4)) of 6.25 µg/mL. The MBIC ([1]; clinical strain 33 (Table S4)) was 50 µg/mL, the MBIC ([1]; clinical strain 35 (Table S4)) was 50 µg/mL and the MBIC ([1]; clinical strain 36 (Table S4)) was 25 µg/mL. The MBIC ([1]; clinical strain 37 (Table S4)) was 50 µg/mL, the MBIC ([1]; clinical strain 39 (Table S4)) was 6.25 µg/mL and the MBIC ([1]; clinical strain 40 (Table S4)) was 25 µg/mL. For the same compound, the MBIC ([1]; clinical strain 41 (Table S4)) was 50 µg/mL, the MBIC ([1]; clinical strain 42 (Table S4)) was 50 µg/mL and the MBIC ([1]; clinical strain 43 (Table S4)) was 25 µg/mL. The MBIC ([1]; clinical strain 44 (Table S4)) was 25 µg/mL, the MBIC ([1]; clinical strain 45 (Table S4)) was 50 µg/mL and the MBIC ([1]; clinical strain 46 (Table S4)) was 50 µg/mL. It also gave an MBIC ([1]; clinical strain 47 (Table S4)) of 25 µg/mL, an MBIC ([1]; clinical strain 49 (Table S4)) of 25 µg/mL and an MBIC ([1]; clinical strain 51 (Table S4)) of 50 µg/mL. For the same compound, the MBIC ([1]; clinical strain 55 (Table S4)) was 50 µg/mL, the MBIC ([1]; clinical strain 58 (Table S4)) was 50 µg/mL and the MBIC ([1]; clinical strain 59 (Table S4)) was 50 µg/mL. For the same compound, the MBIC ([1]; clinical strain 65 (Table S4)) was 50 µg/mL, the MBIC ([1]; clinical strain 66 (Table S4)) was 25 µg/mL and the MBIC ([1]; clinical strain 67 (Table S4)) was 50 µg/mL. The MBIC ([1]; clinical strain 70 (Table S4)) was 50 µg/mL, the MBIC ([1]; clinical strain 73 (Table S4)) was 15.6 µg/mL and the MBIC ([1]; clinical strain 74 (Table S4)) was 25 µg/mL. It also gave an MBIC ([1]; clinical strain 75 (Table S4)) of 25 µg/mL, an MBIC ([1]; clinical strain 78 (Table S4)) of 15.6 µg/mL and an MBIC ([1]; clinical strain 79 (Table S4)) of 15.6 µg/mL.
